These results are taken from patent US9914730B2, “Azaquinazoline inhibitors of Atypical protein Kinase C” (Ignyta, Inc., priority 2012, dated 2018).

As usually defined, the IC50 is the concentration needed to halve the response being measured.

The structures appear in SMILES notation. Where only a bound is given, the exact number is not on record here.

In the experiment the target is T1, full-length human PKCι (Homo sapiens, UniProt P41743).
T1 construct: Recombinant, full-length human PKCι expressed in Sf21 insect cells is also commercially available; purchased; host or cells: Sf21 insect cells
T1 sequence (P41743 1-596): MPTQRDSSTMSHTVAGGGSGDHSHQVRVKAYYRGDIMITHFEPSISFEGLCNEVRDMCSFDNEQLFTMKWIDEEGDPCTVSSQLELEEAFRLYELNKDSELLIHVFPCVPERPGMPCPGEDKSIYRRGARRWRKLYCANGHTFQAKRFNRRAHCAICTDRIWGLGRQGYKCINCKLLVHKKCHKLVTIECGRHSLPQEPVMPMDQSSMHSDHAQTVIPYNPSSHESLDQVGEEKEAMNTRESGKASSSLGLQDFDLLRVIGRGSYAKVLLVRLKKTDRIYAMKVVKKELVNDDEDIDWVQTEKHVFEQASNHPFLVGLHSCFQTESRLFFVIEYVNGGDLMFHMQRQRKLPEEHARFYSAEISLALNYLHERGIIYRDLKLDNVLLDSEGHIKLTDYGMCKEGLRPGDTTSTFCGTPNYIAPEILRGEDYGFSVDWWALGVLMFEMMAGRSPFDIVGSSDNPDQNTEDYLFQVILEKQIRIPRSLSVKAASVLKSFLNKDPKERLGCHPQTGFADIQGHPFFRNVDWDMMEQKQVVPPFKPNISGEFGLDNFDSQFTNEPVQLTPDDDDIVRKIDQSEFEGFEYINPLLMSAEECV
The experiment is described as follows: PKCι IC50 IMAP assay, full-length PKCι at 150 μM ATP. To be noted: read-out: IC50 in IMAP assay against full length PKCi at 150 μM ATP. It counts as biochemical. Summed up:
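IC50 from IMAP FP (ex 485/em 530 nm) after 60 min room-temperature reaction in pH 7.5 tris buffer with 9 mM MgCl2 and 0.9 mM DTT. Enzyme: full-length Sf21-expressed PKCι (~15 pM); ATP 150 μM, five times KM^APP; FAM-labelled peptide 100 nM; DMSO 4%.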

With `CC1(C)CN(c2nc(-c3ccnc4[nH]c(C(C)(C)C)cc34)nc3cncc(C4CCC4)c23)CCN1` [Example 2028, 2-(2-tert-Butyl-1H-pyrrolo[2,3-b]pyridin-4-yl)-5-cyclobutyl-4-(3,3-dimethyl-piperazin-1-yl)-pyrido[3,4-d]pyrimidine], the IC50 is below 100 nM.

With `O[C@@H]1CCN(c2nc(-c3ccnc(Nc4ccccc4)c3)nc3cncc(C4CC4)c23)C[C@H]1O` (racemic) [Example 676, (+/−)-(trans)-1-[5-Cyclopropyl-2-(2-phenylamino-pyridin-4-yl)-pyrido[3,4-d]pyrimidin-4-yl]-piperidine-3,4-diol], the IC50 was in the range of 100 to 1000 nM. Turning to `Cc1cc(F)c(Nc2cc(-c3nc(N4CCNCC4)c4c(C5CC5)cncc4n3)ccn2)c(F)c1` [Example 604, [4-(5-Cyclopropyl-4-piperazin-1-yl-pyrido[3,4-d]pyrimidin-2-yl)-pyridin-2-yl]-(2,6-difluoro-4-methyl-phenyl)-amine], the IC50 is below 100 nM.

For `Cc1nc(Nc2cc(-c3nc(N4CCNCC4)c4c(C5CC5)cncc4n3)ccn2)oc1C` [Example 272, [4-(5-Cyclopropyl-4-piperazin-1-yl-pyrido[3,4-d]pyrimidin-2-yl)-pyridin-2-yl]-(4,5-dimethyl-oxazol-2-yl)-amine], the IC50 is below 100 nM.

Take `Fc1cccn2nc(Nc3cc(-c4nc(N5CCNCC5)c5c(C6CC6)cncc5n4)ccn3)nc12` [Example 2032, [4-(5-Cyclopropyl-4-piperazin-1-yl-pyrido[3,4-d]pyrimidin-2-yl)-pyridin-2-yl]-(8-fluoro-[1,2,4]triazolo[1,5-a]pyridin-2-yl)-amine]: the IC50 is below 100 nM. The value for `c1cc(-c2nc(N3CCNCC3)c3c(C4CC4)cncc3n2)c2cc(C3CC3)[nH]c2n1` [Example 1223, 5-Cyclopropyl-2-(2-cyclopropyl-1H-pyrrolo[2,3-b]pyridin-4-yl)-4-piperazin-1-yl-pyrido[3,4-d]pyrimidine] was below 100 nM; that for `Fc1ccc(C2CC2)cc1Nc1cc(-c2nc(N3CCNCC3)c3c(C4CC4)cncc3n2)ccn1` [Example 667, (5-Cyclopropyl-2-fluoro-phenyl)-[4-(5-cyclopropyl-4-piperazin-1-yl-pyrido[3,4-d]pyrimidin-2-yl)-pyridin-2-yl]-amine] was below 100 nM; that for `COc1cncc2nc(-c3ccnc(Nc4ccc(C5CCOCC5)cc4)c3)nc(N[C@@H]3CCNC3)c12` [Example 361, (5-Methoxy-2-{2-[4-(tetrahydro-pyran-4-yl)-phenylamino]-pyridin-4-yl}-pyrido[3,4-d]pyrimidin-4-yl)-(R)-pyrrolidin-3-yl-amine] was below 100 nM. As to `COc1cncc2nc(-c3ccncc3)nc(N3CCN[C@@H](C(F)c4ccccc4)C3)c12` (stereo partly drawn) [Example 74, (3R)-3-[fluoro(phenyl)-methyl]-1-[5-methoxy-2-(pyridin-4-yl)-pyrido[3,4-d]-pyrimidin-4-yl]-piperazine], the IC50 was below 100 nM. The value for `C[C@@H](Nc1cc(-c2nc(N3CCNCC3)c3c(C4CC4)cncc3n2)ccn1)C1CC1` [Example 810, ((R)-1-Cyclopropyl-ethyl)-[4-(5-cyclopropyl-4-piperazin-1-yl-pyrido[3,4-d]pyrimidin-2-yl)-pyridin-2-yl]-amine] was below 100 nM; that for `C[C@@H](Nc1cc(-c2nc(N3CCNCC3)c3c(C4CC4)cncc3n2)ccn1)c1ccc(F)cc1` [Example 652] was below 100 nM.

`COc1cncc2nc(-c3ccnc4[nH]c(Cc5ccccc5)cc34)nc(N3CCNCC3)c12` [Example 1202, 2-(2-Benzyl-1H-pyrrolo[2,3-b]pyridin-4-yl)-5-methoxy-4-piperazin-1-yl-pyrido[3,4-d]pyrimidine]: the IC50 is below 100 nM.

With `Fc1cccc(Nc2cc(-c3nc(N4CCNCC4)c4c(Cl)cncc4n3)ccn2)c1F` [Example 252, [4-(5-Chloro-4-piperazin-1-yl-pyrido[3,4-d]pyrimidin-2-yl)-pyridin-2-yl]-(2,3-difluoro-phenyl)-amine], the IC50 lay in the range of 100 to 1000 nM.

Consider `CN(C)C(=O)C1CCN(c2nc(-c3ccnc(Nc4c(F)cccc4F)c3)nc3cncc(C4CC4)c23)CC1` [Example 686, 1-{5-Cyclopropyl-2-[2-(2,6-difluoro-phenylamino)-pyridin-4-yl]-pyrido[3,4-d]pyrimidin-4-yl}-piperidine-4-carboxylic acid dimethylamide], for which the IC50 fell in the range of 100 to 1000 nM. Then `COc1cncc2nc(-c3ccnc(NC(=O)Cc4cccc(Cl)c4)c3)nc(N3CCN(C)CC3)c12` [Example 398, 2-(3-Chloro-phenyl)-N-{4-[5-methoxy-4-(4-methyl-piperazin-1-yl)-pyrido[3,4-d]pyrimidin-2-yl]-pyridin-2-yl}-acetamide], with 100 to 1000 nM; and `FC(F)(F)c1cc2c(-c3nc(NC4CCNC4)c4c(C5CC5)cncc4n3)ccnc2[nH]1` (stereo in doubt) [Example 2069, [5-Cyclopropyl-2-(2-trifluoromethyl-1H-pyrrolo[2,3-b]pyridin-4-yl)-pyrido[3,4-d]pyrimidin-4-yl]-(R)-pyrrolidin-3-yl-amine], with below 100 nM. Then `N#Cc1ccnc(Nc2cc(-c3nc(N4CCNCC4)c4ccncc4n3)ccn2)c1` [Example 342, 2-[4-(4-piperazin-1-yl-pyrido[3,4-d]pyrimidin-2-yl)-pyridin-2-ylamino]-isonicotinonitrile], with 100 to 1000 nM. Then `COc1cncc2nc(-c3ccnc(Nc4cc(C#N)ccn4)c3)nc(N3CCC[C@H](O)C3)c12` [Example 426, 2-{4-[4-((S)-3-Hydroxy-piperidin-1-yl)-5-methoxy-pyrido[3,4-d]pyrimidin-2-yl]-pyridin-2-ylamino}-isonicotinonitrile], with 1000 to 10000 nM. Consider `O=C(Cc1ccccc1)Nc1cc(-c2nc(N[C@@H]3CCNC3)c3ccncc3n2)ccn1` [Example 334, 2-Phenyl-N-{4-[4-((R)-pyrrolidin-3-ylamino)-pyrido[3,4-d]pyrimidin-2-yl]-pyridin-2-yl}-acetamide], for which the IC50 fell in the range of 1000 to 10000 nM.

Regarding `OC1CCN(c2nc(-c3ccnc(Nc4ccccc4F)c3)nc3cncc(C4CC4)c23)CC1` [Example 274, 1-{5-Cyclopropyl-2-[2-(2-fluoro-phenylamino)-pyridin-4-yl]-pyrido[3,4-d]pyrimidin-4-yl}-piperidin-4-ol], the IC50 lay in the range of 100 to 1000 nM. Then `COc1cncc2nc(-c3ccnc(NC4CCCCC4)c3)nc(N3CCNCC3)c12` [Example 242, Cyclohexyl-[4-(5-methoxy-4-piperazin-1-yl-pyrido[3,4-d]pyrimidin-2-yl)-pyridin-2-yl]-amine], with below 100 nM; and `CN(C[C@@H](N)Cc1ccccc1)c1nc(-c2ccncc2)nc2cnccc12` [Example 26, N-[(2S)-2-amino-3-phenylpropyl]-N-methyl-2-(pyridin-4-yl)pyrido[3,4-d]-pyrimidin-4-amine], with 10000 to 40000 nM. Consider `O[C@H]1Cc2ccccc2[C@H]1Nc1cc(-c2nc(N3CCNCC3)c3c(C4CC4)cncc3n2)ccn1` [Example 2142, (1R,2S)-1-[4-(5-Cyclopropyl-4-piperazin-1-yl-pyrido[3,4-d]pyrimidin-2-yl)-pyridin-2-ylamino]-indan-2-ol], for which the half-inhibitory concentration (IC50) lay in the range of 100 to 1000 nM. For `Cn1c(Nc2cc(-c3nc(N4CCNCC4)c4c(C5CC5)cncc4n3)ccn2)nc2ccccc21` [Example 2046, [4-(5-Cyclopropyl-4-piperazin-1-yl-pyrido[3,4-d]pyrimidin-2-yl)-pyridin-2-yl]-(1-methyl-1H-benzoimidazol-2-yl)-amine], the IC50 was below 100 nM.

Regarding `COc1cncc2nc(-c3ccnc(Nc4ccccc4)c3)nc(NC[C@@H]3CCCN3)c12` [Example 430, [5-Methoxy-2-(2-phenylamino-pyridin-4-yl)-pyrido[3,4-d]pyrimidin-4-yl]-(S)-1-pyrrolidin-2-ylmethyl-amine], the IC50 fell in the range of 100 to 1000 nM. The value for `c1ccc(C2(c3cc4c(-c5nc(N6CCNCC6)c6c(C7CC7)cncc6n5)ccnc4[nH]3)CC2)cc1` [Example 1240, 5-Cyclopropyl-2-[2-(1-phenyl-cyclopropyl)-1H-pyrrolo[2,3-b]pyridin-4-yl]-4-piperazin-1-yl-pyrido[3,4-d]pyrimidine] was below 100 nM; that for `Clc1cc2c(-c3nc(N4CCNCC4)c4c(C5CC5)cncc4n3)ccnc2[nH]1` [Example 2074, 2-(2-Chloro-1H-pyrrolo[2,3-b]pyridin-4-yl)-5-cyclopropyl-4-piperazin-1-yl-pyrido[3,4-d]pyrimidine] was below 100 nM; that for `c1cc(-c2nc(N3CCNCC3)c3c(C4CC4)cncc3n2)c2cc(C3CCOCC3)[nH]c2n1` [Example 2111, 5-Cyclopropyl-4-piperazin-1-yl-2-[2-(tetrahydro-pyran-4-yl)-1H-pyrrolo[2,3-b]pyridin-4-yl]-pyrido[3,4-d]pyrimidine] was below 100 nM. Then `COc1cncc2nc(-c3ccnc(Nc4cc(C(F)(F)F)ccn4)c3)nc(N3CCNCC3)c12` [Example 367, [4-(5-Methoxy-4-piperazin-1-yl-pyrido[3,4-d]pyrimidin-2-yl)-pyridin-2-yl]-(4-trifluoromethyl-pyridin-2-yl)-amine], with below 100 nM.
